Patent US5578315A, “Mucosal adhesive device for long-acting delivery of pharmaceutical combinations in oral cavity” (Rutgers, The State University of New Jersey, priority 1993, dated 1996)
≈ marks a conversion by molar mass, not a printed value.

Experiment: Solubility in isotonic phosphate buffer containing PEG 400
Type: physicochemical
Experimental: For use of clotrimazole, solubility in phosphate buffer is an issue and therefore, 20% and 40% PEG 400 are added to the phosphate buffer and the solubility is determined.

Clc1ccccc1C(c1ccccc1)(c1ccccc1)n1ccnc1 [clotrimazole, Clotrimazole] showed a solubility (organic solvent or mixture, isotonic phosphate buffer (pH 6.8) containing 20% PEG 400) of about 60 µg/mL (≈ 174 µM) and a solubility (pH 6.8, organic solvent or mixture, phosphate buffer containing 40% PEG 400) of about 430 µg/mL (≈ 1250 µM).
